{
  "source": "ChEMBL document CHEMBL4837270",
  "about": "“2-Trifluoromethylthiazole-5-carboxamides: Analogues of a Stilbene-Based Anti-HIV Agent that Impact HIV mRNA Processing” (ACS Med Chem Lett, 2021)",
  "key": {"[1]": {"experiment": "Cytotoxicity against human CEM-GXR cells infected with HIV1 NL4-3 assessed as cell viability at 10 uM measured after 72 hrs by Flowcytometry assay", "format": "cell-based"}, "[2]": {"tested_on": "Human immunodeficiency virus 1", "experiment": "Antiviral activity against HIV1 NL4-3 infected in human CEM-GXR cells assessed as inhibition of viral replication measured after 3 days by Flowcytometry assay", "format": "functional, organism-based", "conditions": "Human immunodeficiency virus 1, NL4-3, CEM-GXR, 72 h"}, "[3]": {"tested_on": "Human immunodeficiency virus 1", "experiment": "Antiviral activity against wild type HIV1 NL4-3 infected in human CEM-GXR cells assessed as inhibition of viral replication measured after 3 days by Flowcytometry assay", "format": "functional, organism-based", "conditions": "Human immunodeficiency virus 1, NL4-3, CEM-GXR, 72 h"}, "[4]": {"tested_on": "Human immunodeficiency virus 1", "experiment": "Antiviral activity against wild type HIV1 97USSN54 infected in human CEM-GXR cells assessed as inhibition of viral replication measured after 3 days by Flowcytometry assay", "format": "functional, organism-based", "conditions": "Human immunodeficiency virus 1, 97USSN54, CEM-GXR, 72 h"}, "[5]": {"tested_on": "Human immunodeficiency virus 1", "experiment": "Antiviral activity against antiretroviral-resistant HIV1 443 harboring reverse transcriptase K103N/D67N/K70R/Y115F/Q151M/M184V/K219Q mutant infected in human CEM-GXR cells assessed as inhibition of viral replication measured after 3 days by Flowcytometry assay", "format": "functional, organism-based", "conditions": "Human immunodeficiency virus 1, 443, CEM-GXR, 72 h"}, "[6]": {"tested_on": "Human immunodeficiency virus 1", "experiment": "Antiviral activity against antiretroviral-resistant HIV1 2948 harboring protease G48V/L90M mutant infected in human CEM-GXR cells assessed as inhibition of viral replication measured after 3 days by Flowcytometry assay", "format": "functional, organism-based", "conditions": "Human immunodeficiency virus 1, 2948, CEM-GXR, 72 h"}, "[7]": {"tested_on": "Human immunodeficiency virus 1", "experiment": "Antiviral activity against antiretroviral-resistant HIV1 11845 harboring integrase G140S/Q148H mutant infected in human CEM-GXR cells assessed as inhibition of viral replication measured after 3 days by Flowcytometry assay", "format": "functional, organism-based", "conditions": "Human immunodeficiency virus 1, 11845, CEM-GXR, 72 h"}, "[8]": {"tested_on": "Human immunodeficiency virus 1", "experiment": "Antiviral activity against antiretroviral-resistant HIV1 MVC-res harboring envelope V3 loop A19T/L20F/T22A/E25D/I26V mutant infected in human CEM-GXR cells assessed as inhibition of viral replication measured after 3 days by Flowcytometry assay", "format": "functional, organism-based"}, "[9]": {"experiment": "Cytotoxicity against human CEM-GXR cells infected with wild type HIV1 NL4-3 assessed as cell viability measured after 72 hrs by Flow cytometry assay", "format": "cell-based"}, "[10]": {"experiment": "Cytotoxicity against human CEM-GXR cells infected with wild type HIV1 97USSN54 assessed as cell viability measured after 72 hrs by Flow cytometry assay", "format": "cell-based"}, "[11]": {"experiment": "Cytotoxicity against human CEM-GXR cells infected with wild type HIV1 443 harboring reverse transcriptase K103N/D67N/K70R/Y115F/Q151M/M184V/K219Q mutant assessed as cell viability measured after 72 hrs by Flow cytometry assay", "format": "cell-based"}, "[12]": {"experiment": "Cytotoxicity against human CEM-GXR cells infected with wild type HIV1 2948 harboring protease G48V/L90M mutant assessed as cell viability measured after 72 hrs by Flow cytometry assay", "format": "cell-based"}, "[13]": {"experiment": "Cytotoxicity against human CEM-GXR cells infected with wild type HIV1 11845 harboring […] G140S/Q148H mutant assessed as cell viability measured after 72 hrs by Flow cytometry assay", "format": "cell-based"}, "[14]": {"experiment": "Cytotoxicity against human CEM-GXR cells infected with wild type HIV1 MVC-res harboring envelope V3 loop A19T/L20F/T22A/E25D/I26V mutant assessed as cell viability measured after 72 hrs by Flow cytometry assay", "format": "cell-based"}, "[15]": {"experiment": "Therapeutic index, ratio of CC50 for human CEM-GXR cells infected with wild type HIV1 NL4-3 to EC50 for wild type HIV1 NL4-3 infected in human CEM-GXR cells", "format": "toxicity, cell-based", "conditions": "read-out: TI"}, "[16]": {"experiment": "Therapeutic index, ratio of CC50 for human CEM-GXR cells infected with wild type HIV1 97USSN54 to EC50 for wild type HIV1 97USSN54 infected in human CEM-GXR cells", "format": "toxicity, cell-based", "conditions": "read-out: TI"}, "[17]": {"experiment": "Therapeutic index, ratio of CC50 for human CEM-GXR cells infected with HIV1 443 harboring reverse transcriptase K103N/D67N/K70R/Y115F/Q151M/M184V/K219Q mutant to EC50 for HIV1 443 harboring reverse transcriptase K103N/D67N/K70R/Y115F/Q151M/M184V/K219Q mutant", "format": "toxicity", "conditions": "read-out: TI"}, "[18]": {"experiment": "Therapeutic index, ratio of CC50 for human CEM-GXR cells infected HIV1 2948 with harboring protease G48V/L90M mutant to EC50 for HIV1 2948 harboring protease G48V/L90M mutant infected in human CEM-GXR cells", "format": "toxicity, cell-based", "conditions": "read-out: TI"}, "[19]": {"experiment": "Therapeutic index, ratio of CC50 for human CEM-GXR cells infected with HIV1 11845 harboring integrase G140S/Q148H mutant to EC50 for HIV1 11845 harboring integrase G140S/Q148H mutant infected in human CEM-GXR cells", "format": "toxicity, cell-based", "conditions": "read-out: TI"}, "[20]": {"experiment": "Therapeutic index, ratio of CC50 for human CEM-GXR cells infected with HIV1 MVC-res harboring envelope V3 loop A19T/L20F/T22A/E25D/I26V mutant to EC50 for HIV1 MVC-res harboring envelope V3 loop A19T/L20F/T22A/E25D/I26V mutant infected in human CEM-GXR cells", "format": "toxicity, cell-based", "conditions": "read-out: TI"}, "[21]": {"experiment": "Cytotoxicity against human PBMC cells assessed as cell viability measured after 11 days by Viacount assay", "format": "cell-based", "conditions": "time 11 day"}, "[22]": {"tested_on": "Human immunodeficiency virus 1", "experiment": "Anti-HIV activity against HIV1 Bal infected in human PBMC assessed as inhibition of viral infection measured after 11 days by ELISA method", "format": "functional, organism-based", "conditions": "Human immunodeficiency virus 1, Bal, 264 h"}, "[23]": {"experiment": "Anti-HIV activity against HIV1 3B infected in human PBMC assessed as inhibition of viral infection measured after 11 days by ELISA method", "format": "functional, cell-based", "conditions": "Human immunodeficiency virus 1, 3B, 264 h"}, "[24]": {"tested_on": "Human immunodeficiency virus 1", "experiment": "Antiviral activity against HIV1 NL4-3 infected in human CEM-GXR cells assessed as inhibition of viral replication at 1.25 to 10 uM measured after 3 days by Flowcytometry assay", "format": "functional, organism-based", "conditions": "dose 1.25-10 µM, time 3.0 day"}, "[25]": {"tested_on": "Human immunodeficiency virus 1", "experiment": "Anti-HIV activity against HIV1 provirus infected in HeLa cells assessed as reduction of GAG production in presence of Doxycycline measured after 24 hrs by GFP flourescence based plate reader method", "format": "functional, organism-based"}, "[26]": {"experiment": "Cytotoxicity against human CEM-GXR cells infected with HIV1 NL4-3 assessed as cell viability measured after 3 days by Flowcytometry assay", "format": "cell-based", "conditions": "72 h"}, "[27]": {"experiment": "Cytotoxicity against human CEM-GXR cells infected with HIV1 NL4-3 assessed as cell viability at 1.25 to 10 uM measured after 3 days by Flowcytometry assay", "format": "cell-based", "conditions": "72 h, dose 1.25-10 µM, time 3 day"}},
  "note": "pEC50: −log10 of the molar value. Calls of active or inactive are those of the source. No cut-off for these calls is given here.",
  "data": [
    {"smiles": "O=C(Nc1nc2c(Cl)cccc2s1)c1cnc(C(F)(F)F)s1", "values": [
      {"measurement": "Activity", "setting": "[1]", "value": "Non-Toxic"},
      {"measurement": "pEC50", "setting": "[2]", "value": 5.78},
      {"measurement": "pEC50", "setting": "[3]", "value": 5.89},
      {"measurement": "pEC50", "setting": "[4]", "value": 6.02},
      {"measurement": "pEC50", "setting": "[5]", "value": 5.94},
      {"measurement": "pEC50", "setting": "[6]", "value": 5.93},
      {"measurement": "pEC50", "setting": "[7]", "value": 6.02},
      {"measurement": "pEC50", "setting": "[8]", "value": 6.01},
      {"measurement": "CC50 at 72 h", "setting": "[9]", "value": 95700, "unit": "nM"},
      {"measurement": "CC50 at 72 h", "setting": "[10]", "value": 95700, "unit": "nM"},
      {"measurement": "CC50 at 72 h", "setting": "[11]", "value": 95700, "unit": "nM"},
      {"measurement": "CC50 at 72 h", "setting": "[12]", "value": 95700, "unit": "nM"},
      {"measurement": "CC50 at 72 h", "setting": "[13]", "value": 95700, "unit": "nM"},
      {"measurement": "CC50 at 72 h", "setting": "[14]", "value": 95700, "unit": "nM"},
      {"measurement": "selectivity ratio", "setting": "[15]", "value": 74},
      {"measurement": "selectivity ratio", "setting": "[16]", "value": 100},
      {"measurement": "selectivity ratio", "setting": "[17]", "value": 83},
      {"measurement": "selectivity ratio", "setting": "[18]", "value": 82},
      {"measurement": "selectivity ratio", "setting": "[19]", "value": 101},
      {"measurement": "selectivity ratio", "setting": "[20]", "value": 99},
      {"measurement": "CC50 at 264 h", "setting": "[21]", "value": 9080, "unit": "nM"},
      {"measurement": "pEC50", "setting": "[22]", "value": 6.62},
      {"measurement": "pEC50", "setting": "[23]", "value": 5.71}
    ]},
    {"smiles": "O=C(Nc1nsc2ccc([N+](=O)[O-])cc12)c1ccc([N+](=O)[O-])s1", "values": [
      {"measurement": "Activity", "setting": "[24]", "value": "inactive"}
    ]},
    {"smiles": "O=C(Nc1ccc(C(F)(F)F)cc1)c1ccc([N+](=O)[O-])s1", "values": [
      {"measurement": "Activity", "setting": "[25]", "value": "inactive"}
    ]},
    {"smiles": "O=C(Nc1nc2ccc([N+](=O)[O-])cc2s1)c1ccc([N+](=O)[O-])s1", "values": [
      {"measurement": "Activity", "setting": "[24]", "value": "Active"},
      {"measurement": "pEC50", "setting": "[26]", "value": 5.62}
    ]},
    {"smiles": "N#Cc1ccc(C(=O)Nc2nc3c(Cl)cccc3s2)s1", "values": [
      {"measurement": "pEC50", "setting": "[2]", "value": 5.52}
    ]},
    {"smiles": "O=C(Nc1cccc2ncccc12)c1ccc([N+](=O)[O-])s1", "values": [
      {"measurement": "Activity", "setting": "[24]", "value": "inactive"}
    ]},
    {"smiles": "O=C(Nc1nc2ccc(OC(F)(F)F)cc2s1)c1ccc([N+](=O)[O-])s1", "values": [
      {"measurement": "Activity", "setting": "[24]", "value": "Active"},
      {"measurement": "Activity", "setting": "[27]", "value": "Toxic"}
    ]},
    {"smiles": "O=C(Nc1cnc2ccccc2c1)c1ccc([N+](=O)[O-])s1", "values": [
      {"measurement": "Activity", "setting": "[24]", "value": "inactive"}
    ]},
    {"smiles": "O=C(Nc1nc2c(Cl)cccc2s1)c1ccc(C(F)(F)F)s1", "values": [
      {"measurement": "pEC50", "setting": "[2]", "value": 5.26}
    ]},
    {"smiles": "O=C(Nc1nc2cc(Br)ccc2s1)c1ccc([N+](=O)[O-])s1", "values": [
      {"measurement": "Activity", "setting": "[24]", "value": "Active"},
      {"measurement": "Activity", "setting": "[27]", "value": "Toxic"}
    ]},
    {"smiles": "O=C(Nc1cncc2ccccc12)c1ccc([N+](=O)[O-])s1", "values": [
      {"measurement": "Activity", "setting": "[24]", "value": "inactive"}
    ]}
  ]
}
